The text below walks through data of patent publication US9415031B2, “D-serine transporter inhibitors as pharmaceutical compositions for the treatment of visual system disorders” (Allergan, Inc., priority 2011, dated 2016).

In experiment [1] the test system is astrocytes. The experiment can be described thus: [3H]L-serine transport into astrocytes. It is filed as cell-based, rat. Conditions: FIG. 6B. As to the method: (§1) Cell-based assays: the transport of [^3H]L- or D-serine was measured in primary cultures of rat hippocampal astrocytes or in human embryonic kidney (HEK) cells expressing ASCT transporter sub-types. For the astrocyte assays, cells were plated on either 24- or 96-well plates at a density of 50,000 cells per well. For the HEK assays, cells were plated on coated 96-well plates at a density of 80,000 cells/well. Assays were conducted in duplicate at room temperature in assay buffer consisting of: NaCl: 150 mM, KCl: 2 mM; MgCl2: 1 mM; CaCl2: 1 mM; HEPES: Tris buffer: 10 mM, pH7.4. To assess the sodium-dependence of transport, NaCl was replaced in the assay buffer by equimolar choline chloride. Following aspiration of growth medium and 2 washes with assay buffer, cells were incubated with [^3H]L- or D-serine at a final concentration of 1 μM for 5 min (astrocytes) or 1 min (HEK cells), after which the incubation medium was aspirated and the cells washed twice with ice-cold assay buffer. Cells containing radiolabel were solubilized in 100 μl of 1% Triton-X100 and an aliquot counted in a beta counter. IC50 values were determined over a range of at least 6 concentrations and derived from curve-fitting algorithms available in Graph Pad Prism 4.

The target of experiment [2] is T1, ASCT1 (Homo sapiens, UniProt P43007).
T1 sequence (P43007 1-532): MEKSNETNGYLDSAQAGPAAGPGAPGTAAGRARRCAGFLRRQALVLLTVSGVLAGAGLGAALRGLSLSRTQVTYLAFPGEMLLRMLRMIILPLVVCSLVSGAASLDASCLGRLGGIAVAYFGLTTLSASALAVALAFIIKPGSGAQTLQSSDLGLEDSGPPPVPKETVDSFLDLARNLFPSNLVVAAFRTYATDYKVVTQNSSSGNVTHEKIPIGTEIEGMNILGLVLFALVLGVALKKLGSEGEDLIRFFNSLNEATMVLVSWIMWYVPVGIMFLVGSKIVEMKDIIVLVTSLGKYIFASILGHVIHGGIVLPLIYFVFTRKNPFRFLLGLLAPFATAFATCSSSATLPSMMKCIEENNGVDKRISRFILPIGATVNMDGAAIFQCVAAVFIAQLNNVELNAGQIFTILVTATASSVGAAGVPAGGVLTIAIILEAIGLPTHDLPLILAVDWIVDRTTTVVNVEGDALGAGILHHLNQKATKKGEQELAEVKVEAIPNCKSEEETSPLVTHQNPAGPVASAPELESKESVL
As to the kind of experiment: transport into HEK cells expressing ASCT1. It counts as cell-based. More on the design: expressed in transfected cells; host or cells: HEK (human embryonic kidney) cells. As for the experimental part: as §1

For experiment [3], the target named is T2, human ASCT2 (Homo sapiens, UniProt Q15758).
T2 construct: expressed in transfected cells; host or cells: HEK (human embryonic kidney) cells
T2 sequence (Q15758 1-541): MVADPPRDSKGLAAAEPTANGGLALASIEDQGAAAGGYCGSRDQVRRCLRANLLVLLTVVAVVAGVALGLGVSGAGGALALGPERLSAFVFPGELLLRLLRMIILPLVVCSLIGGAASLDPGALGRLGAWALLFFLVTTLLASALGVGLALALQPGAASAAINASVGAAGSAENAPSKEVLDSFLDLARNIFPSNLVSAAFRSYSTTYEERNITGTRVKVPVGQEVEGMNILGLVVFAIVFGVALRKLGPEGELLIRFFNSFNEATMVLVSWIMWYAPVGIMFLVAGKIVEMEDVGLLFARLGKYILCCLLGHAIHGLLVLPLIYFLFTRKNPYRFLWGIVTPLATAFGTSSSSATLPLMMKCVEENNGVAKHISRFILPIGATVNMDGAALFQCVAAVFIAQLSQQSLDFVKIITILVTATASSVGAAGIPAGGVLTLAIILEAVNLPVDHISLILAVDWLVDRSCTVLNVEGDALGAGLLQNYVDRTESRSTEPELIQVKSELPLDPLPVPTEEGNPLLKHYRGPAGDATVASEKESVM
As to the kind of experiment: transport into HEK cells expressing ASCT2. It is filed as cell-based. The conditions noted are these: ASCT2-expressing HEK cells, FIG. 6B. As for the experimental part:
as §1

For the molecule `N[C@H](CO)C(=O)O` [D-serine], the “inhibition of [3H]L-serine transport” value is reported as “completely inhibited” in experiment [1]; “completely inhibited” in experiment [2] (ASCT1-expressing HEK cells, FIG. 6B); “completely inhibited” in experiment [3]. Moreover, in experiment [2] (with and without extracellular sodium, FIG. 6A), the “transport of [3H]D-serine into ASCT1-expressing HEK cells” value is “transported into ASCT1-expressing HEK cells in a sodium-dependent manner”.
